Measured values: patent publication US20220145335A1, “Bio-catalyzed Synthesis of Potent Anti-inflammatory Agents from Medroxyprogesterone Acetate” (priority 2022, published 2022)
Like-named read-outs stand apart in the source and are kept apart here.

What was measured:
[1] = tested on: T-cells (peripheral blood mononuclear cells); test: T-cell proliferation assay (PHA-stimulated PBMC, tritiated thymidine incorporation); format: cell-based, human; settings: in vitro; for IC50: PHA-stimulated human PBMC, 72 h + 18 h thymidine pulse, read-out: IC50, T-cell proliferation inhibition; for T-cell proliferation inhibitory activity, result in words: compared to substrate (1) and standard prednisolone
Method: T-Cell Proliferation Assay The T-cell proliferation inhibitory activity of compounds 2-6 were evaluated by following the method of Nielsen et al. (1998). Peripheral blood mononuclear cells (PBMC) were isolated by Ficoll-Hypaque gradient centrifugation from the blood of healthy human volunteers. The concentration of the cell was adjusted to 2×10^6 cells/mL in RPMI-1640 media containing 5% FBS (Fetal bovine serum) and then 5 μg/mL phytohemagglutinin (PHA) was added into each well of a sterile 96-well plates. Different concentrations of test compounds (0.2, 1, 5, and 25 μg/mL) were then added, each in triplicate. Positive control wells contained cells and PHA, whereas the negative control contains cells alone. The plate was incubated in 5% CO2 at 37° C. for 72 hours and the cells were pulsed with 25 μL of tritiatedthymidine (0.5 μci/well), and the incubation was continued for 18 hours. Cells were harvested on a glass fiber filter, and the effect of the test compounds on proliferation was evaluated using a LS65000 liquid scintillation counter (Beckman Coulter, Fullerton, Calif., USA) quantitatively using a LS65000 liquid scintillation counter (Beckman Coulter, CA, USA). Counts per minute (CPM) were recorded, and the inhibiton of T-cell proliferation was calculated in comparison to control containing cells and PHA.

In the case of `CC(=O)O[C@]1(C(C)=O)CC[C@H]2[C@@H]3C[C@@](C)(O)C4=CC(=O)CC[C@]4(C)[C@H]3[C@@H](O)C[C@@]21C` [Compound 6, 17α-Acetoxy-11β,6β-dihydroxy-6α-methylpregn-4-ene-3,20-dione], the IC50 ([1]; 90 h) is reported as 8.64 ± 0.02 µM, the IC50 [1] is reported as 8.64 ± 0.02 µM and the “T-cell proliferation inhibitory activity, result in words” value [1] is reported as “strong activity”. For the same molecule, the melting point was 152 to 154 °C.

`C[C@]12C=CC(=O)C=C1CC[C@@H]1[C@@H]2[C@@H](O)C[C@@]2(C)[C@H]1CC[C@]2(O)C(=O)CO` [prednisolone, reference compound] showed an IC50 ([1]; 90 h) of 9.75 ± 0.03 µM and an IC50 [1] of 9.75 ± 0.03 µM.

In the case of `CC(=O)O[C@]1(C(C)=O)C[C@@H](O)[C@H]2[C@@H]3C[C@H](C)C4=CC(=O)CC[C@]4(C)[C@H]3[C@@H](O)C[C@@]21C` [Compound 5, 17α-Acetoxy-11β,15β-dihydroxy-6α-methylpregn-4-ene-3,20-dione], the IC50 ([1]; 90 h) is reported as less than 0.5 µM, the IC50 [1] is reported as less than 0.5 µM and the “T-cell proliferation inhibitory activity, result in words” value [1] is reported as “potent inhibitors”. For the same molecule, the melting point was 228 to 230 °C.

With `CC(=O)O[C@]1(C(C)=O)C[C@@H](O)[C@H]2[C@@H]3C[C@H](C)C4=CC(=O)CC[C@]4(C)[C@H]3C(=O)C[C@@]21C` [Compound 3, 17α-Acetoxy-15β-hydroxy-6α-methylpregn-4-ene-3,11,20-trione] the IC50 ([1]; 90 h) was 41.6 ± 8.14 µM, the “T-cell proliferation inhibitory activity, result in words” value [1] was “moderately active” and the melting point was 265 to 268 °C.

In the case of `CC(=O)O[C@]1(C(C)=O)CC[C@H]2[C@@H]3C[C@H](C)C4=CC(=O)CC[C@]4(C)[C@H]3C(=O)C[C@@]21C` [Compound 2, 17α-Acetoxy-6α-methylpregn-4-ene-3,11,20-trione], the IC50 ([1]; 90 h) is reported as less than 0.5 µM, the IC50 [1] is reported as less than 0.5 µM and the “T-cell proliferation inhibitory activity, result in words” value [1] is reported as “potent inhibitors”. It also gave a melting point of 238 to 240 °C.

With `CC(=O)O[C@]1(C(C)=O)CC[C@H]2[C@@H]3C[C@@](C)(O)C4=CC(=O)CC[C@]4(C)[C@H]3C(=O)C[C@@]21C` [Compound 4, 17α-Acetoxy-6β-hydroxy-6α-methylpregn-4-ene-3,11,20-trione] the IC50 ([1]; 90 h) was 40.14 ± 0.12 µM, the “T-cell proliferation inhibitory activity, result in words” value [1] was “moderately active” and the melting point was 232 to 233 °C.

`CC(=O)O[C@]1(C(C)=O)CC[C@H]2[C@@H]3C[C@H](C)C4=CC(=O)CC[C@]4(C)[C@H]3CC[C@@]21C` [Compound 1, Medroxyprogesterone acetate] gave an IC50 [1] of 6.48 ± 5.18 µM.
